Experimental data taken from patent US12077503B2, “Substituted cyclic amides and their use as herbicides” (FMC CORPORATION, priority 2015, dated 2024).

Tests used:
Type in all cases: in vivo
[1] = system: barnyardgrass (Echinochloa crus-galli); experiment: Test G Pre-Emergence Protocol; details: evaluated after 13 days
Experimental: (§1) Seeds of corn (Zea mays), giant foxtail (Setaria faberi), barnyardgrass (Echinochloa crus-galli), ivy-leaved morning glory (Ipomoea hederacea), redroot pigweed (Amaranthus retroflexus) and velvetleaf (Abutilon theophrasti) were sown in standard soil in pots. After cultivation for one day under controlled conditions in a glasshouse (at 24/16° C., day/night; 14 hours light; 65% humidity), the plants were sprayed with an aqueous spray solution derived from the formulation of the technical active ingredient in acetone/water (50:50) solution containing 0.5% Tween 20 (polyoxyethylene sorbitan monolaurate, CAS RN 9005-64-5) to give a final dose of 15.625, 62.5 or 250 g/ha of test compound.
(§2) The test plants were then grown on under controlled conditions in a glasshouse (at 24/16° C., day/night; 14 hours light; 65% humidity) and watered twice daily. After 13 days the test was evaluated (100=total damage to plant; 0=no damage to plant). A dash (-) means no test result.

[2] = system: corn (Zea mays); experiment: Test G Pre-Emergence Protocol; details: evaluated after 13 days
Experimental: as §1, §2

[3] = system: giant foxtail (Setaria faberi); experiment: Test G Pre-Emergence Protocol; details: evaluated after 13 days
Experimental: as §1, §2

[4] = system: ivy-leaved morning glory (Ipomoea hederacea); experiment: Test G Pre-Emergence Protocol; details: evaluated after 13 days; for Morningglory, Ivy-leaved damage rating (100=total damage to plant; 0=no damage to plant): 250 g ai/ha
Experimental: as §1, §2

[5] = system: redroot pigweed (Amaranthus retroflexus); experiment: Test G Pre-Emergence Protocol; details: evaluated after 13 days
Experimental: as §1, §2

[6] = system: velvetleaf (Abutilon theophrasti); experiment: Test G Pre-Emergence Protocol; details: evaluated after 13 days
Experimental: as §1, §2

[7] = system: barnyardgrass (Echinochloa crus-galli); experiment: Test G Post-Emergence Protocol
Experimental: as §1, with “8 days” for “one day”
as §2

[8] = system: corn (Zea mays); experiment: Test G Post-Emergence Protocol
Experimental: as §1, with “8 days” for “one day”
as §2

[9] = system: giant foxtail (Setaria faberi); experiment: Test G Post-Emergence Protocol
Experimental: as §1, with “8 days” for “one day”
as §2

[10] = system: ivy-leaved morning glory (Ipomoea hederacea); experiment: Test G Post-Emergence Protocol
Experimental: as §1, with “8 days” for “one day”
as §2

[11] = system: redroot pigweed (Amaranthus retroflexus); experiment: Test G Post-Emergence Protocol
Experimental: as §1, with “8 days” for “one day”
as §2

[12] = system: velvetleaf (Abutilon theophrasti); experiment: Test G Post-Emergence Protocol
Experimental: as §1, with “8 days” for “one day”
as §2

[13] = 62.5 g ai/ha, 100=total damage to plant, 0=no damage to plant
[14] = 15.625 g ai/ha, evaluated after 13 days (100=total damage to plant; 0=no damage to plant)
[15] = 62.5 g ai/ha, evaluated after 13 days
[16] = 250 g ai/ha, evaluated after 13 days
[17] = 62.5 g ai/ha, evaluated after 13 days, 100=total damage to plant, 0=no damage to plant
[18] = 250 g ai/ha, evaluated after 13 days, 100=total damage to plant, 0=no damage to plant

## CN1CC(c2ccc(C(F)(F)F)cc2)C(C(=O)Nc2cccc(F)c2[N+](=O)[O-])C1=O (racemic) [Compound 1546]
[1]; 15.625 g ai/ha
  Barnyardgrass damage rating (100=total damage to plant; 0=no damage to plant): 0
[1]; [13]
  plant damage rating, Barnyardgrass: 20
[1]; 250 g ai/ha
  Barnyardgrass damage rating (100=total damage to plant; 0=no damage to plant): 80
[2]; 15.625 g ai/ha
  Corn damage rating (100=total damage to plant; 0=no damage to plant): 0
[2]; [13]
  plant damage rating, Corn: 10
[2]; 250 g ai/ha
  Corn damage rating (100=total damage to plant; 0=no damage to plant): 40
[3]; 15.625 g ai/ha
  Foxtail, Giant damage rating (100=total damage to plant; 0=no damage to plant): 60
[3]; [13]
  plant damage rating, Foxtail, Giant: 80
[3]; 250 g ai/ha
  Foxtail, Giant damage rating (100=total damage to plant; 0=no damage to plant): 90
[4]; 15.625 g ai/ha
  Morning-glory, Ivy-leaved damage rating (100=total damage to plant; 0=no damage to plant): 0
[4]; [13]
  plant damage rating, Morningglory, Ivy-leaved: 20
[4]
  Morningglory, Ivy-leaved damage rating (100=total damage to plant; 0=no damage to plant): 40
[5]; 15.625 g ai/ha
  Pigweed, Redroot damage rating (100=total damage to plant; 0=no damage to plant): 0
[5]; [13]
  plant damage rating, Pigweed, Redroot: 30
[5]; 250 g ai/ha
  Pigweed, Redroot damage rating (100=total damage to plant; 0=no damage to plant): 70
[6]; 15.625 g ai/ha
  Velvetleaf damage rating (100=total damage to plant; 0=no damage to plant): 0
[6]; [13]
  plant damage rating, Velvetleaf: 0
[6]; 250 g ai/ha
  Velvetleaf damage rating (100=total damage to plant; 0=no damage to plant): 0
[7]; [14]
  Barnyardgrass damage rating: 40
[7]; [15]
  Barnyardgrass damage rating (100=total damage to plant; 0=no damage to plant): 70
[7]; [16]
  damage to plant, Barnyardgrass (100=total damage to plant; 0=no damage to plant): 80
[8]; [14]
  Corn damage rating: 0
[8]; [15]
  Corn damage rating (100=total damage to plant; 0=no damage to plant): 20
[8]; [16]
  damage to plant, Corn (100=total damage to plant; 0=no damage to plant): 50
[9]; [14]
  Foxtail, Giant damage rating: 60
[9]; [15]
  Foxtail, Giant damage rating (100=total damage to plant; 0=no damage to plant): 80
[9]; [16]
  damage to plant, Foxtail, Giant (100=total damage to plant; 0=no damage to plant): 80
[10]; [14]
  Morningglory, Ivy-leaved damage rating: 0
[10]; [15]
  Morningglory, Ivy-leaved damage rating (100=total damage to plant; 0=no damage to plant): 20
[10]; [16]
  damage to plant, Morningglory, Ivy-leaved (100=total damage to plant; 0=no damage to plant): 30
[11]; [14]
  Pigweed, Redroot damage rating: 30
[11]; [15]
  Pigweed, Redroot damage rating (100=total damage to plant; 0=no damage to plant): 60
[11]; [16]
  damage to plant, Pigweed, Redroot (100=total damage to plant; 0=no damage to plant): 60
[12]; [14]
  Velvetleaf damage rating: 0
[12]; [15]
  Velvetleaf damage rating (100=total damage to plant; 0=no damage to plant): 0
[12]; [16]
  damage to plant, Velvetleaf (100=total damage to plant; 0=no damage to plant): 10

## CN1C[C@@H](c2ccc(C(F)(F)F)cc2)[C@H](C(=O)Nc2cccnc2F)C1=O (racemic) [Compound 1653]
[1]; [13]
  Barnyardgrass damage rating: 80
[1]; 250 g ai/ha
  Barnyardgrass damage rating (100=total damage to plant; 0=no damage to plant): 80
[1]; Echinochloa crus-galli, pre-emergence, 312 h, 15.625 g ai/ha, read-out: Barnyardgrass damage rating (100=total damage to plant; 0=no damage to plant)
  pest or weed control at 15.625 g/ha: 0%
[2]; [13]
  Corn damage rating: 30
[2]; 250 g ai/ha
  Corn damage rating (100=total damage to plant; 0=no damage to plant): 80
[2]; Zea mays, pre-emergence, 312 h, 15.625 g ai/ha, read-out: Corn damage rating (100=total damage to plant; 0=no damage to plant)
  plant injury at 15.625 g/ha: 0%
[3]; 15.625 g ai/ha
  Foxtail, Giant damage rating (100=total damage to plant; 0=no damage to plant): 60
[3]; [13]
  Foxtail, Giant damage rating: 90
[3]; 250 g ai/ha
  Foxtail, Giant damage rating (100=total damage to plant; 0=no damage to plant): 90
[4]
  Morningglory, Ivy-leaved damage rating (100=total damage to plant; 0=no damage to plant): 20
[4]; Ipomoea, pre-emergence, 312 h, 15.625 g ai/ha, read-out: Morningglory, Ivy-leaved damage rating (100=total damage to plant; 0=no damage to plant)
  pest or weed control at 15.625 g/ha: 0%
[4]; Ipomoea, pre-emergence, 312 h, 62.5 g ai/ha, 100=total damage to plant, 0=no damage to plant, read-out: Morningglory, Ivy-leaved damage rating
  pest or weed control at 62.5 g/ha: 0%
[5]; [13]
  Pigweed, Redroot damage rating: 40
[5]; 250 g ai/ha
  Pigweed, Redroot damage rating (100=total damage to plant; 0=no damage to plant): 80
[5]; Amaranthus retroflexus, pre-emergence, 312 h, 15.625 g ai/ha, read-out: Pigweed, Redroot damage rating (100=total damage to plant; 0=no damage to plant)
  pest or weed control at 15.625 g/ha: 0%
[6]; [13]
  Velvetleaf damage rating: 10
[6]; 250 g ai/ha
  Velvetleaf damage rating (100=total damage to plant; 0=no damage to plant): 50
[6]; Abutilon theophrasti, pre-emergence, 312 h, 15.625 g ai/ha, read-out: Velvetleaf damage rating (100=total damage to plant; 0=no damage to plant)
  pest or weed control at 15.625 g/ha: 0%
[7]; [14]
  Barnyardgrass damage rating: 30
[7]; [17]
  Barnyardgrass damage rating: 60
[7]; [18]
  Barnyardgrass damage rating: 80
[8]; [17]
  Corn damage rating: 30
[8]; [18]
  Corn damage rating: 70
[8]; Zea mays, post-emergence, 312 h, 15.625 g ai/ha, evaluated after 13 days (100=total damage to plant; 0=no damage to plant), read-out: Corn damage rating
  plant injury at 15.625 g/ha: 0%
[9]; [14]
  Foxtail, Giant damage rating: 60
[9]; [17]
  Foxtail, Giant damage rating: 80
[9]; [18]
  Foxtail, Giant damage rating: 80
[10]; [14]
  Morningglory, Ivy-leaved damage rating: 10
[10]; [17]
  Morningglory, Ivy-leaved damage rating: 30
[10]; [18]
  Morningglory, Ivy-leaved damage rating: 40
[11]; [17]
  Pigweed, Redroot damage rating: 70
[11]; [18]
  Pigweed, Redroot damage rating: 80
[11]; Amaranthus retroflexus, post-emergence, 312 h, 15.625 g ai/ha, evaluated after 13 days (100=total damage to plant; 0=no damage to plant), read-out: Pigweed, Redroot damage rating
  pest or weed control at 15.625 g/ha: 0%
[12]; [17]
  Velvetleaf damage rating: 40
[12]; [18]
  Velvetleaf damage rating: 50
[12]; Abutilon theophrasti, post-emergence, 312 h, 15.625 g ai/ha, evaluated after 13 days (100=total damage to plant; 0=no damage to plant), read-out: Velvetleaf damage rating
  pest or weed control at 15.625 g/ha: 0%
